# Data: patent US20240408211A1, “COMPOSITIONS AND METHODS OF AMELIORATING AVERSIVENESS OF AVERSIVE STIMULI BY INHIBITION OF PURINERGIC RECEPTORS” (Monell Chemical Senses Center, priority 2021, published 2024)
# Like-named read-outs stand apart in the source and are kept apart here.
# Assays:
# patients = conditions: cited from earlier work
# P2X2/3 = biological target: T1, P2X2/3 (Homo sapiens, UniProt P56373+Q9UBL9); test: P2X2/3 stable HEK293 cell lines responding to α,β-meATP (screening assay); assay type: cell-based
# T1 construct: expressed in transfected cells; host or cells: HEK293
# T1 sequence (Q9UBL9 1-471): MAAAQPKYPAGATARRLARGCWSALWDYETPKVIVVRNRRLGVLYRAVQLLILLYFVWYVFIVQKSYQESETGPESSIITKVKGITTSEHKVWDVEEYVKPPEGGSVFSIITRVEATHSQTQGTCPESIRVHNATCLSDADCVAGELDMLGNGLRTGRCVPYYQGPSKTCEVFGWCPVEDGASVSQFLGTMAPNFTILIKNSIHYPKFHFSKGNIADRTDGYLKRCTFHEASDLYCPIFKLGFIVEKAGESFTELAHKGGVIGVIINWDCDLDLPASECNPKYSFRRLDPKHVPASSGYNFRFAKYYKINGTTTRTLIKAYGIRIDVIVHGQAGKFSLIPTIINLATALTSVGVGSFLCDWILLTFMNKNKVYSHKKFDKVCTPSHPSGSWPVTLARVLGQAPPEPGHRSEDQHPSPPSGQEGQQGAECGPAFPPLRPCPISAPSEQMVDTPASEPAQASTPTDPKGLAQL
# T1 sequence (P56373 1-397): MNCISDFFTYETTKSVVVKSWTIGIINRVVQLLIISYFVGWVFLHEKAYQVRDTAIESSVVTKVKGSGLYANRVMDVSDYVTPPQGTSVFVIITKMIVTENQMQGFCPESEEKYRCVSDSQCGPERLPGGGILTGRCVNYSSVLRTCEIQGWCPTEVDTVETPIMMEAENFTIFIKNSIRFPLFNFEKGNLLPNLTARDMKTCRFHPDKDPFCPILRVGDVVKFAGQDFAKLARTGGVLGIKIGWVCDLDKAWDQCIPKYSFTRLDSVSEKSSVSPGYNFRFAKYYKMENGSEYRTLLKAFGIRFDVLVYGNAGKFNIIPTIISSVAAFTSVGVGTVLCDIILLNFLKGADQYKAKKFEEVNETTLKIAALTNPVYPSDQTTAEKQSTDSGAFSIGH
# Method: In this study, we built stable cell lines expressing P2X2/3 in HEK293 cells via transfection with either P2X2-Neo or P2X3-Zeo constructs, following which selection was performed using Zeocin, G418. Picked clones were grown out from single cells (cultured continuously in the presence of Zeocin and G418) using cloning rings.
# The resulted stable cell lines are used for characterizing putative taste-blockers.
# rats = conditions: cited from earlier work
# [1] = clinical trial; cited from earlier work
# [2] = in vivo; cited from earlier work
# Method for humans: In some experiments, we used a regimen of two 1-minute rinses with 500 μM AF-353 composition (i.e., oral topical administration).
# In this study, we tested an AF-353 composition in humans as an oral rinse after receiving IRB approval for its use. First, we tested rinsing 100 μM (0.04 mg/mL) orally for 2 minutes as 4×30 sec rinses with expectoration. We tested before and after sour, bitter, sweet, and salty solutions (quinine HCl, NaCl, Praziquantal, sucrose, CO2).
# Next, we tested rinsing 500 μM (0.2 mg/mL) AF-353 for two minutes, in 2×1 min increment rinses with expectoration.
smiles,measurement,setting,value
"COc1cc(C(C)C)c(Oc2cnc(N)nc2N)cc1S(N)(=O)=O [AF-219, 5-[(2,4-diaminopyrimidin-5-yl)oxy]-2-methoxy-4-(propan-2-yl)benzene-1-sulfonamide]",taste disturbances,patients; 600 mg twice daily,taste disturbances in all patients tested
same,taste disturbances,patients; doses as low as 7.5-50 mg twice daily,"also cause taste disturbances, albeit less severe"
same,taste block,"humans; 500 μM, preliminary test",did not block taste
"Nc1ncnc2c1ncn2[C@@H]1O[C@H](COP(=O)(O)CP(=O)(O)OP(=O)(O)O)[C@@H](O)[C@H]1O [α,β-meATP]",IC50,P2X2/3; P2X2/3 stable Line 2,2.01 µM
same,IC50,P2X2/3; P2X2/3 stable Line 6,2.1 µM
same,IC50,P2X2/3; P2X2/3 stable Line 9,3.93 µM
same,IC50,P2X2/3; P2X2/3 stable Line 12,1.78 µM
same,IC50,P2X2/3; P2X2/3 stable Line 24,2.75 µM
O=C(NCC12CC3CC(CC(C3)C1)C2)c1cc(CCCNCCCO)ccc1Cl [AZD-9056],taste block,"humans; various concentration, negative control composition",did not block taste
"CNC(=O)c1cc(F)c(-c2nc3cc(C)ccn3c2C[C@@H]2CCCN(C(=O)OC)C2)c(F)c1 [BLU-5937, Methyl (S)-3-((2-(2,6-difluoro-4-(methylcarbamoyl)phenyl)-7-methylimidazo[1,2-a]pyridin-3-yl)methyl)piperidine-1-carboxylate]",influence on taste,"rats; rat, 10-20 mg/kg intraperitoneally",did not influence taste
same,behaviour towards 0.3 mM quinine hydrochloride in two-bottle choice,"rats; rats, 10 or 20 mg/kg ip, 15-min test",avoided the quinine
Cc1cnc(-c2cc(O[C@@H]3CCOC3)cc(C(=O)N[C@H](C)c3cnc(C(F)(F)F)nc3)c2)s1 [eliapixant],taste-related adverse events (primarily dysgeusia),[1],caused taste-related adverse events
same,effects on ratings of taste intensity measured using taste strips,[2],no concerted effects
